Assay results published in patent US7199128B2, “8-N-substituted-2H-isothiazolo[5,4-b]quinolizine-3,4-diones and related compounds as antiinfective agents” (Achillion Pharmaceuticals, Inc., priority 2005, dated 2007).
In brackets after ≈: the same amount, converted by molar mass. Where two headings read alike, the source gives them in different places.

Columns and labels:
S. aureus DNA gyrase = S. aureus DNA gyrase (Staphylococcus aureus, UniProt P0A0K8+P20831); assay: DNA gyrase supercoiling assay; type: biochemical
Chain of S. aureus DNA gyrase (P20831 whole entry): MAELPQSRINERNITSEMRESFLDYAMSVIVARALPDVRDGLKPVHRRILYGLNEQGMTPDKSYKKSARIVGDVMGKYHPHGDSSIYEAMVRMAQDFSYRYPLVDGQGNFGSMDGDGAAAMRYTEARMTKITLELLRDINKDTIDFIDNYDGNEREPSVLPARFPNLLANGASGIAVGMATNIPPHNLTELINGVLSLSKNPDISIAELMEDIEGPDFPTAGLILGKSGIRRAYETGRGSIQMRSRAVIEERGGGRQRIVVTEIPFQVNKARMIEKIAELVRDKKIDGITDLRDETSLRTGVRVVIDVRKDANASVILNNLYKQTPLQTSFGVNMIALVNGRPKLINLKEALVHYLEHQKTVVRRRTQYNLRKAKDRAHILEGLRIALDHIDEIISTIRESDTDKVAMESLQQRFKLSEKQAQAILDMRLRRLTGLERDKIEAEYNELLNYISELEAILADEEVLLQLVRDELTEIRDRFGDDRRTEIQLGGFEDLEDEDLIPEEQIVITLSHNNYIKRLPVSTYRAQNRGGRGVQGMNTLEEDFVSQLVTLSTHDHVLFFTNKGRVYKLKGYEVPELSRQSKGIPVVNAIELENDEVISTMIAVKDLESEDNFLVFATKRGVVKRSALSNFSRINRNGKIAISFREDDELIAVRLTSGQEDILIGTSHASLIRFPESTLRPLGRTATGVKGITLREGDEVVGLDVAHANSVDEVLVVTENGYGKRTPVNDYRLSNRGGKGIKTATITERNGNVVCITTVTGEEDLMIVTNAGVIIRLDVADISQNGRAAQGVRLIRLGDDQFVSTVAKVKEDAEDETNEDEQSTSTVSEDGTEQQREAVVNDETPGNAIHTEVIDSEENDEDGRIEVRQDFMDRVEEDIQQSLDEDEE
Chain of S. aureus DNA gyrase (P0A0K8 whole entry): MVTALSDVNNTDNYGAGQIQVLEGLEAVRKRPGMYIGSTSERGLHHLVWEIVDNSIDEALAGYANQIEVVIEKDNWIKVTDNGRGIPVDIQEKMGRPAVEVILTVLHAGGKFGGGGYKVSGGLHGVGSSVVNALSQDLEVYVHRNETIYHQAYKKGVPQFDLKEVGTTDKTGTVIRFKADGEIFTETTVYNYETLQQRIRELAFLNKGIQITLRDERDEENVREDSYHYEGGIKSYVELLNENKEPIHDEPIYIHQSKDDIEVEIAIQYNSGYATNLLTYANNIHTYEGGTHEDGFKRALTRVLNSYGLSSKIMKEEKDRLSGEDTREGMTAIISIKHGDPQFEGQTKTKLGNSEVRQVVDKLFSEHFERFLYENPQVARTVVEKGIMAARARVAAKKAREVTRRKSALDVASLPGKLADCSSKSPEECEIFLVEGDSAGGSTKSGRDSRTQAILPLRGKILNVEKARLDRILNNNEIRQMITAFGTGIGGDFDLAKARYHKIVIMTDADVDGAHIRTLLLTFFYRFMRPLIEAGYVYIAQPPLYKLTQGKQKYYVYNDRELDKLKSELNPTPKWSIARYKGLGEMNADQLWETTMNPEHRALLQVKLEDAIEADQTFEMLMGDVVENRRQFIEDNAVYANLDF

S. aureus ATCC 29213 = assay: Minimum inhibitory concentration (MIC) assay, broth microdilution; type: cell-based; conditions: Staphylococcus aureus, ATCC29213; against S. aureus; visible growth after 18–24 h at 37° C.
Procedure: (§1) The antimicrobial activity of the compounds of the invention may be evaluated by a number of methods, including the following visual minimum inhibitory concentration (MIC) assay. This assay determines the minimum concentration of compound required to inhibit growth of a bacterial strain. Minimum Inhibitory Concentration (MIC) Assay Whole-cell antibacterial activity is determined by broth microdilution using conditions recommended by the National Committee for Clinical Laboratory Standards (NCCLS). […] Test compounds are dissolved in DMSO and diluted 1:50 in Mueller-Hinton II broth (Becton-Dickinson) to produce a 256 μg/ml stock solution. In a 96-well microtiter plate, the compound solution is serially two-fold diluted in Mueller-Hinton II broth. After the compounds are diluted, a 50 μl aliquot of the test organism (˜1×10^6 cfu/mL) is added to each well of the microtiter plate. The final test concentrations range from 0.125–128 μg/mL. Inoculated plates are incubated in ambient air at 37° C. for 18 to 24 hours. The organisms selected for testing included laboratory strains S. aureus ATCC 29213 and E. coli ATCC 25922 (strains purchased from American Type Culture Collection, Manassas, Va.). The minimum inhibitory concentration (MIC) was determined as the lowest concentration of compound that inhibited visible growth of the test organism.

E. coli ATCC 25922 = assay: as above; type: cell-based; conditions: Escherichia coli, ATCC25922; against E. coli; visible growth after 18–24 h at 37° C.
Procedure: as §1

E. coli DNA gyrase = target: T1, E. coli DNA gyrase (Escherichia coli, UniProt P0AES4+P0AES6); assay: DNA gyrase supercoiling assay; type: biochemical; conditions: read-out: inhibition of E. coli DNA gyrase supercoiling IC50
T1 construct: made in house; host or cells: E. coli
T1 sequence (P0AES4 whole entry, one chain of several): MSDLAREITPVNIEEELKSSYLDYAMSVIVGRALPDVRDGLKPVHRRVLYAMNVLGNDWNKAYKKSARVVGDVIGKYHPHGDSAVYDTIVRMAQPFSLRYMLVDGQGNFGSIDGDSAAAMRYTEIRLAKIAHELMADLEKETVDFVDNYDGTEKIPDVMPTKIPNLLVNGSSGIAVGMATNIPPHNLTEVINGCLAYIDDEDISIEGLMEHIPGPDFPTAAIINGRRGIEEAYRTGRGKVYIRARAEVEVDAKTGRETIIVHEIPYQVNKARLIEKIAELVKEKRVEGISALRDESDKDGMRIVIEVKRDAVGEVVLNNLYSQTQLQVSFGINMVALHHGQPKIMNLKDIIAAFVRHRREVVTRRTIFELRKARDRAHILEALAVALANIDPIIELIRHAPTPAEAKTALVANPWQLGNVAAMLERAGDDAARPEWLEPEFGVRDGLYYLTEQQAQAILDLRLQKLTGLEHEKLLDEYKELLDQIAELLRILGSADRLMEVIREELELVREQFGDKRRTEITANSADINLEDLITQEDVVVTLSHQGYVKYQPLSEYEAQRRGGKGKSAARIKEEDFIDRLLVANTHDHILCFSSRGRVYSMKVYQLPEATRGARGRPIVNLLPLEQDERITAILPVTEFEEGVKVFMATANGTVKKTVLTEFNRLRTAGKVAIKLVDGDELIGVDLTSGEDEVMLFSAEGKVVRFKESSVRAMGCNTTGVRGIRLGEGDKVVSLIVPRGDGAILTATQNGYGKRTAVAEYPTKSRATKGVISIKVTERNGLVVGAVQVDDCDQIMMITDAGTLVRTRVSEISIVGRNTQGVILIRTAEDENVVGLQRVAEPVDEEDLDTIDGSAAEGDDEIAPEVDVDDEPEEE
Procedure: Enzyme activity is measured by a supercoiling assay that monitors the ATP-dependent conversion of relaxed pBR322 DNA to the supercoiled form. Analysis is done by gel electrophoresis through 1% agarose/TBE gel. DNA is visualized with an Alpha Imager 2200 Analysis System and the IC50 determined by nonlinear regression analysis with Graphpad Prism software. E. coli DNA gyrase enzyme subunits, gyrA and gyrB, are purified to homogeneity from over-expression constructs in E. coli.

[1] = target: T2, S. aureus topoisomerase IV (Staphylococcus aureus, UniProt P0C1S7+P0C1U9); assay: Topoisomerase IV decatenation assay; type: biochemical
T2 construct: made in house; host or cells: E. coli
T2 sequence (P0C1U9 whole entry): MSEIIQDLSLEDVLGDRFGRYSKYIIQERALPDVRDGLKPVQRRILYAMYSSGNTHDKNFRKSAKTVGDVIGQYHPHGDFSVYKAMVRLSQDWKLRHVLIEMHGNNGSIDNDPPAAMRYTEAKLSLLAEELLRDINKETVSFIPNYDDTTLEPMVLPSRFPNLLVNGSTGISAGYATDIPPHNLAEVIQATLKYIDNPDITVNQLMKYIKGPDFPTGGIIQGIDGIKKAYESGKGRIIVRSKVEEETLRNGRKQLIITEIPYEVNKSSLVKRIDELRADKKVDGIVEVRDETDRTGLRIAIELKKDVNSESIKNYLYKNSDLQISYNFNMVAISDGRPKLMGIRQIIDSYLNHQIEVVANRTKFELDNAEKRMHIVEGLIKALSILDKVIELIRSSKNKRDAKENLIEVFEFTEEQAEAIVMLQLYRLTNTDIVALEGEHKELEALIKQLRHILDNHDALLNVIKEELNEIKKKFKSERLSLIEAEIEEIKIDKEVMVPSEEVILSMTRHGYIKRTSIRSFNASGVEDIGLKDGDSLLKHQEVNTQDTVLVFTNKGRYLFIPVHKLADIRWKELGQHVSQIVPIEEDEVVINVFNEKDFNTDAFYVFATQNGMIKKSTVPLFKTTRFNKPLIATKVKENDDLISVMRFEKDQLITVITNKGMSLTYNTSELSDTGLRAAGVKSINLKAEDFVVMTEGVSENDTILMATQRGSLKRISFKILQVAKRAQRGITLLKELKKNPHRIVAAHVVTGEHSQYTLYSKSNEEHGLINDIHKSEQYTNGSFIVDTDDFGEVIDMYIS
T2 sequence (P0C1S7 whole entry): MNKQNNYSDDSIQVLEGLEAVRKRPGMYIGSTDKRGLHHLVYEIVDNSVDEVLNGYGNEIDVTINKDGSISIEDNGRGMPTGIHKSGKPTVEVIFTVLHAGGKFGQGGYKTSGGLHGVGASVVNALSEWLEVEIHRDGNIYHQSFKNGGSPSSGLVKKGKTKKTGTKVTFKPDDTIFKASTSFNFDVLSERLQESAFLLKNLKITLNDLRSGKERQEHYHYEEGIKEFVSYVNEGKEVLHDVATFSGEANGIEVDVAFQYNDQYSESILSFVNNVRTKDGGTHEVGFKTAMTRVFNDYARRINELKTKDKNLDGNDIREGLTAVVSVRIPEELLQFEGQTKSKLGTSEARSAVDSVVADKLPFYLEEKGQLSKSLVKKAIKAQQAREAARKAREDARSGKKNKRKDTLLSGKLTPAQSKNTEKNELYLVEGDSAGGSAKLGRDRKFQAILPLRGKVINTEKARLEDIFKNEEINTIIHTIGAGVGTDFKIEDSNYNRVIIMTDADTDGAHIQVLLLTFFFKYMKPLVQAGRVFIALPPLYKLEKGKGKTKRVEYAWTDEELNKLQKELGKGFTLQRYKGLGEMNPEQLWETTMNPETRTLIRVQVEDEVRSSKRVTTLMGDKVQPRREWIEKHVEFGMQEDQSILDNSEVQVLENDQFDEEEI
Procedure: Topoisomerase IV Activity
Enzyme activity is measured by a decatenation assay that monitors the ATP-dependent unlinking of DNA minicircles from kinetoplast DNA. Analysis is done by gel electrophoresis through 1% agarose/TBE gel. DNA is visualized with an Alpha Imager 2200 Analysis System and the IC50 determined by nonlinear regression analysis with Graphpad Prism software. S. aureus topoismerase IV enzyme subunits, grlA and grlB, are purified to homogeneity from over-expression plasmids in E. coli.

[2] = Cell viability staining with Alamar Blue (cytotoxicity); type: cell-based; conditions: Chinese hamster, CHO (Chinese hamster ovary) cells, positive control
Procedure: (§2) Optimal cell density is first determined by plating cells in a 96-well plate standard sterile tissue culture plates in 100 μl media, 10%FBS at six cell densities from 500 cells/well to 15,000 cells/well. A cell free well containing only media is used as a control. Cells are incubated at 37° C. in a 5% CO2 incubator for 24 hours. 10% culture volume (10 microliters) of Alamar Blue (Biosource, DAL1100, 100 ml) is then added. Cells are incubated at 37° C. in a 5% CO2 incubator and read in a Victor V plate reader, 544 nm excitation, 590 nm emission, at 3, 4, and 24 hours after the addition of Alamar Blue. The cell number vs. change in fluorescence is plotted to determine linearity of signal vs. cell number. The optimal density varies between 500–15,000 cells/well depending on the specific cell type. The optimal density is selected based on the highest number of cells that is still in the linear response range. Determination of Compound Cytotoxicity Cells are plated at optimal cell density in a standard sterile tissue culture 96 well plate, and incubated at 37° C. O/N in a 5% CO2 incubator. 12 to 48 hours post-plating media is removed. […] Plates are incubated 4 hours at 37° C. in a 5% CO2 incubator and read in a Victor V plate reader, 544 nm excitation, 590 nm emission. […] The change in fluorescence vs. concentration of test compound is plotted to determine the cytotoxicity of the compound.

[3] = as above; type: cell-based; conditions: human, HEP 2 (laryngeal carcinoma) cells; HEP 2 cells, positive control
Procedure: as §2

| SMILES | IC50 (S. aureus DNA gyrase) [µM] | MIC (S. aureus ATCC 29213) [µg/mL] | MIC (E. coli ATCC 25922) [µg/mL] | IC50 (E. coli DNA gyrase) [µM] | IC50 ([1]; read-out: inhibition of S. aureus topoisomerase IV activity IC50) [µM] | CC50 [2] [µM] | CC50 [3] [µM] | IC50 [1] [µM] |
| --- | --- | --- | --- | --- | --- | --- | --- | --- |
| O=c1[nH]sc2c(C3CC3)c3cc(N4CC(O)C4)c(F)cn3c(=O)c12 [Compound 9, 10-cyclopropyl-7-fluoro-8-(3-hydroxyazetidin-1-yl)-2H-isothiazolo[5,4-b]quinolizine-3,4-dione] | > 200 |  |  |  |  |  |  |  |
| CCc1c2s[nH]c(=O)c2c(=O)n2ccc(N3CCNCC3)cc12 [Compound 8, 10-ethyl-8-(piperazin-1-yl)-2H-isothiazolo[5,4-b]quinolizine-3,4-dione] | > 200 | 10 (≈ 30.3 µM) | 10 (≈ 30.3 µM) | < 1 | < 10 |  |  |  |
| CC(C)(C)c1ccc(C(O)CCCN2CCC(C(O)(c3ccccc3)c3ccccc3)CC2)cc1 (stereo not drawn) [Terfenadine] |  |  |  |  |  | 4.3 to 6.5 | 3 to 5 |  |
| CCc1c2s[nH]c(=O)c2c(=O)n2ccc(N3CCC(N(C)C)C3)cc12 (racemic) [Compound 7, 8-(3-(dimethylamino)pyrrolidin-1-yl)-10-ethyl-2H-isothiazolo[5,4-b]quinolizine-3,4-dione] |  | 10 (≈ 27.9 µM) | 10 (≈ 27.9 µM) | < 1 |  |  |  | < 10 |
